Measured values published in patent US20090325956A1, “Aromatic amine derivative and use thereof” (priority 2006, published 2009).
Counter-ions that a name gives are not always drawn.

molecular target: T1, SCD (rat liver microsome) (Rattus norvegicus, UniProt P07308); experiment: Measurement of SCD inhibitory activity using microsome (TLC detection system); type: biochemical; details: test compound 10 μM; rat liver microsome (20 μg), [14C] stearoyl-CoA, 15 min
T1 construct: an enzyme reaction using rat liver microsome (20 μg) was performed for 15 min; from tissue; host or cells: rat liver microsome fraction
T1 sequence (P07308 1-358): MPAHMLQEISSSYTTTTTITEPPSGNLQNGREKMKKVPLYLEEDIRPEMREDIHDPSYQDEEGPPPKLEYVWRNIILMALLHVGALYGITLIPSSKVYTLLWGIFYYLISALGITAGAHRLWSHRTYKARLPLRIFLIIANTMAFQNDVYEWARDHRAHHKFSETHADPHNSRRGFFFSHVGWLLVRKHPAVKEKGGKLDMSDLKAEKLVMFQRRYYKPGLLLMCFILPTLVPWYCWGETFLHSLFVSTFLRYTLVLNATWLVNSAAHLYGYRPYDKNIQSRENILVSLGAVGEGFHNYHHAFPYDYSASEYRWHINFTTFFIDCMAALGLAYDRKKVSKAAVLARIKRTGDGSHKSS
Protocol: “Test Method” Measurement of SCD Inhibitory Activity Using Microsome (TLC Detection System)
A test compound (10 mM) diluted with DMSO in advance was secondarily diluted to 3/1000 with 3× buffer (300 mmol/L NaH2PO4 [pH 7.4], 450 mM KCl, 30 mM NaF, 9 mM MgCl2, 4.5 mM glutathione [reduced form], 0.3% BSA [fatty acid free, SIGMA]). The test compound (10 μL) diluted with the assay buffer was dispensed to a PP 96-deep well block, and a microsome fraction (10 μL) diluted with a microsome buffer was added thereto. The enzyme reaction was started by the addition of 10 μL of [^14C] stearoyl-CoA (American Radiolabeled Chemicals [ARC], Inc.) diluted to 10 μCi/mL with 9 mmol/L NADH. For evaluation of the compound, an enzyme reaction using rat liver microsome (20 μg) was performed for 15 min. The reaction was quenched by the addition of 10 μL of 2.5N NaOH, a plate seal was applied, and the reaction mixture was incubated overnight in a dry heater set to 65° C. to allow saponification. Solvent extraction of fatty acid was based on the Bligh&Dyer method (1). Formic acid:methanol:chloroform (1:6:3) (200 μL) was added, the state of single layer was maintained, the mixture was sufficiently stirred, and pure water (120 μL) was added to allow separation into two layers. The lower chloroform layer (10 μL) was spotted on reversed-phase TLC plate (RP-18, 1154230001, Merck Japan, Ltd.) and developed with acetonitrile:pure water:acetic acid (95:4.5:0.5). The TLC plate was dried and transferred onto an Imaging Plate (Fuji Photo Film Co., Ltd.) for not less than 5 hr. For detection, BAS-5000 (Fuji Photo Film Co., Ltd) was used and the obtained spot images were converted to numerical values using Multi Gauge Ver2.3 (Fuji Photo Film Co., Ltd), based on which the SCD activity inhibitory rate (%) was determined.

| SCD activity inhibitory rate (%) | Compound |
| --- | --- |
| 92% | CCc1cccc(NC(=O)N2CCOC(COc3cc(F)ccc3Cl)C2)n1 (centres unmarked) [Example 202, 2-[(2-chloro-5-fluorophenoxy)methyl]-N-(6-ethylpyridin-2-yl) morpholine-4-carboxamide] |

same assay, conditions: test compound 10 μM; rat liver microsome (20 μg), [14C] stearoyl-CoA, 15 min; read-out: SCD activity inhibitory rate (%)

| Compound | inhibition at 10 µM |
| --- | --- |
| Cc1cc(C)nc(NC(=O)N2CCOC(COc3ccccc3F)C2)c1 (centres unmarked) [Example 59, N-(4,6-dimethylpyridin-2-yl)-2-[(2-fluorophenoxy)methyl]morpholine-4-carboxamide trifluoroacetate] | 88% |
| O=C(Nc1ccc(Cn2cccn2)cc1)N1CCCC(COc2cc(Cl)ccc2Cl)C1 (centres unmarked) [Example 167, 3-[(2,5-dichlorophenoxy)methyl]-N-[4-(1H-pyrazol-1-ylmethyl)phenyl]piperidine-1-carboxamide] | 85% |
| O=C(Nc1cnn(Cc2ccc(F)cc2)c1)c1cccc(COc2ccccc2)c1 [Example 149, N-[1-(4-fluorobenzyl)-1H-pyrazol-4-yl]-3-(phenoxymethyl)benzamide] | 97% |
| Cc1nn(Cc2ccccc2)c2sc(C(=O)Nc3ccc(Cn4cccn4)cc3)cc12 [Example 118, 1-benzyl-3-methyl-N-[4-(1H-pyrazol-1-ylmethyl)phenyl]-1H-thieno[2,3-c]pyrazole-5-carboxamide] | 86% |
| O=C(Nc1cnn(Cc2ccc(F)cc2)c1)c1ccc(Cn2cnc3ccccc32)cc1 [Example 99, 4-(1H-benzimidazol-1-ylmethyl)-N-[1-(4-fluorobenzyl)-1H-pyrazol-4-yl]benzamide] | 93% |
| Cc1cc(C)nc(NC(=O)c2ccc(Cn3cnc4ccccc43)cc2)c1 [Example 108, 4-(1H-benzimidazol-1-ylmethyl)-N-(4,6-dimethylpyridin-2-yl)benzamide] | 97% |
| Cc1cc(C)nc(NC(=O)c2cc(COc3cc(Cl)ccc3Cl)ccn2)c1 [Example 113, 4-[(2,5-dichlorophenoxy)methyl]-N-(4,6-dimethylpyridin-2-yl)pyridine-2-carboxamide] | 86% |
| O=C(Nc1ccc(Cn2cccn2)cc1)c1ccnc(COc2cc(Cl)ccc2Cl)c1 [Example 116, 2-[(2,5-dichlorophenoxy)methyl]-N-[4-(1H-pyrazol-1-ylmethyl)phenyl]isonicotinamide] | 100% |
| NC(=O)c1ccsc1NC(=O)c1cccc(COc2cc(Cl)ccc2Cl)c1 [Example 93, 2-({3-[(2,5-dichlorophenoxy)methyl]benzoyl}amino)thiophene-3-carboxamide] | 83% |

Continued, values first:

| inhibition at 10 µM | Compound |
| --- | --- |
| 99% | O=C(Nc1cnn(Cc2ccc(F)cc2)c1)c1cccc(CNc2ccccc2Cl)c1 [Example 201, 3-{[(2-chlorophenyl)amino]methyl}-N-[1-(4-fluorobenzyl)-1H-pyrazol-4-yl]benzamide] |
| 97% | O=C(Nc1ccc(CO)cn1)N1CCOC(COc2cc(F)ccc2Cl)C1 (centres unmarked) [Example 212, 2-[(2-chloro-5-fluorophenoxy)methyl]-N-[5-(hydroxymethyl)pyridin-2-yl]morpholine-4-carboxamide] |
| 93% | CN(Cc1cccc(C(=O)Nc2cnn(Cc3ccc(F)cc3)c2)c1)c1ccccc1Cl [Example 225, 3-{[(2-chlorophenyl)(methyl)amino]methyl}-N-[1-(4-fluorobenzyl)-1H-pyrazol-4-yl]benzamide] |
| 88% | O=C(Nc1cnn(CCO)c1)c1cc(COc2ccccc2Cl)ccn1 [Example 169, 4-[(2-chlorophenoxy)methyl]-N-[1-(2-hydroxyethyl)-1H-pyrazol-4-yl]pyridine-2-carboxamide] |
